Data: publication PMC7457137, “An Integrated Pharmacokinetic Study of an Acanthopanax senticosus Extract Preparation by Combination of Virtual Screening, Systems Pharmacology, and Multi-Component Pharmacokinetics in Rats” (Frontiers in Pharmacology, 2020)
Like-named read-outs stand apart in the source and are kept apart here.

Legend:
[1] = Stability of the compounds in rat plasma (LC-MS validation); type: in vitro ADME
From the text: According to the “Guidelines for non-clinical pharmacokinetics of drugs” issued by Centre for Drug Evaluation, National Medical Products Administration, China ([Guidelines for non-clinical pharmacokinetics of drugs, 2014]), the LC-MS method was validated by linearity, limits of detection (LOD), limits of quantification (LOQ), precision, accuracy, extraction recovery, matrix effect and stability of the 6 compounds in rat plasma. In brief, blank rat plasma was obtained from the other six rats. The standard mixture solution containing the 6 compounds (with the concentration of 1 mg/ml for each) was diluted with […] to prepare a series of working solution containing the 6 compounds (concentration level: 20, 50, 100, 250, 500 ng/ml and 1, 2.5, 5, 10, 25, 50, 100, 125 150, 200 μg/ml) and IS (2.5μg/ml). For calibration curve, 10 μl of the series of working solution containing the IS (2.5μg/ml) was added into 100 μl of blank plasma. Finally, 15 data points (2, 5, 10, 25, 50, 100, 250, 500 ng/ml and 1, 2.5, 5, 10, 12.5 15, 20 μg/ml) were used in the calibration curve linearity. Calibration curves were plotted by weighted linear regression of the peak area ratio of analyte to the IS against the related nominal concentration of the analyte. LOD and LOQ were defined as the detectable concentration at which the ratio of signal to noise was about 3 and 10, respectively ([Huang et al., 2019]). […] The extraction recovery and matrix effect were also assessed at the above-mentioned three concentration levels for the 6 ingredients in the spiked plasma samples ([Huang et al., 2019]). Stability was examined under the condition of setting un-treated plasma samples at ambient temperature for 6 h, and extracted plasma samples in auto-sampler for 10 h, as well as setting plasma samples for three freeze-thaw cycles and at −80°C for 15 days ([Guidelines for non-clinical pharmacokinetics of drugs, 2014]).

[2] = Multi-component PK in rats after i.v. administration of ASEP; type: in vivo, Sprague-Dawley rats; details: for ingredient concentration in rat plasma: PK time points 2.5, 5, 10, 15 and 20 min after single i.v. 3.52 ml/kg of 5 times concentrated ASEP, preliminary examination; for AUC0-∞ / AUC(0-t) / Cl / MRT0-∞ / Vd / t 1/2 / MRT0-t / AUC(0-inf) / clearance / MRT last / MRT inf / half-life: rat plasma, mean ± SD, n=3; for AUC(0-inf): read-out: AUC0-∞; for clearance: read-out: Cl (converted); for MRT last: read-out: MRT0-t; for MRT inf: read-out: MRT0-∞; for half-life: read-out: t 1/2 (converted)
Protocol: The animal experiments were conducted in line with the Guide for the Care and Use of Laboratory Animals (published by the USA National Institutes of Health, NIH Publication no. 85-23, revised 1996), which were approved by the Animal Care and Use Committee of the College of Animal Science (College of Bee Science), Fujian Agriculture and Forestry University (Approval Number: […]2019004). […] All rats were acclimated to the facilities and environment for 7 days before the experiments. […] The gradient elution was carried out by the mobile phase water with 0.1% formic acid (A) and methanol (B). […] The column temperature and flow rate were at 35 °C and 0.5 ml/min, resepectively. 5 μl sample solution was injected for the HPLC-MS analysis. The electrospray ionization (ESI) source conditions were as follows: block heating temperature was kept at 400 °C; desolvation line temperature was set at 250 °C; dry gas (nitrogen) flow rate was kept at 15 L/min; and auxiliary gas (nitrogen) flow rate was 3 L/min. […] The plasma samples were separated by centrifugation, followed by storing at -20 °C before analysis. […] A DAS 3.0 software (Chinese Pharmacologic Society, Beijing, China) was used to calculate the noncompartmental PK parameters. All the results were presented as mean ± SD, and statistics analysis was done with a single-tailed Student's t test in the work.

zebrafish model = tested on: zebrafish model; parameters: method as in Lin et al., 2017; Hu et al., 2018; details: ref Lin et al., 2017, Hu et al., 2018; cited from earlier work
[3] = tested on: human umbilical vein endothelial cells; parameters: method as in Lin et al., 2017; Hu et al., 2018; details: ref Lin et al., 2017, Hu et al., 2018; cited from earlier work
[4] = rat, in vivo; cited from earlier work
[5] = extracted plasma samples, 10h in auto-sampler vials, high spiked level (HQC, 8000-16000 ng/mL)
[6] = extracted plasma samples, 10h in auto-sampler vials, low spiked level (LQC, 5-30 ng/mL)
[7] = extracted plasma samples, 10h in auto-sampler vials, middle spiked level (MQC, 400-1600 ng/mL)
[8] = rat plasma, 6h at room temperature, high spiked level (HQC, 8000-16000 ng/mL)
[9] = rat plasma, 6h at room temperature, low spiked level (LQC, 5-30 ng/mL)
[10] = rat plasma, 6h at room temperature, middle spiked level (MQC, 400-1600 ng/mL)
[11] = rat plasma, freeze-thaw stability (three cycles), high spiked level (HQC, 8000-16000 ng/mL)
[12] = rat plasma, freeze-thaw stability (three cycles), low spiked level (LQC, 5-30 ng/mL)
[13] = rat plasma, freeze-thaw stability (three cycles), middle spiked level (MQC, 400-1600 ng/mL)
[14] = rat plasma, long-term stability (-80℃,15 days), high spiked level (HQC, 8000-16000 ng/mL)
[15] = rat plasma, long-term stability (-80℃,15 days), low spiked level (LQC, 5-30 ng/mL)
[16] = rat plasma, long-term stability (-80℃,15 days), middle spiked level (MQC, 400-1600 ng/mL)
[17] = High group: single i.v. 3.52 ml/kg of 5 times concentrated ASEP
[18] = Low group: single i.v. 1.76 ml/kg of 5 times concentrated ASEP
[19] = male, Sprague-Dawley, rat, plasma, iv, 1.76 ml/kg, Low group: single i.v. 1.76 ml/kg of 5 times concentrated ASEP
[20] = male, Sprague-Dawley, rat, plasma, iv, 3.52 ml/kg, High group: single i.v. 3.52 ml/kg of 5 times concentrated ASEP

AUC0-∞ [2, 17]	AUC(0-t) [2, 17]	Cl [2, 17] [L/h]	MRT0-∞ [2, 17] [min]	AUC0-∞ [2, 18]	AUC(0-t) [2, 18]	Cl [2, 18] [L/h]	Compound	Stability, RE [1, 5] [%]	Stability, RE [1, 6] [%]	Stability, RE [1, 7] [%]	Stability, RE [1, 8] [%]	Stability, RE [1, 9] [%]	Stability, RE [1, 10] [%]	Stability, RE [1, 11] [%]	Stability, RE [1, 12] [%]	Stability, RE [1, 13] [%]	Stability, RE [1, 14] [%]	Stability, RE [1, 15] [%]	Stability, RE [1, 16] [%]	ingredient concentration in rat plasma [2] [ng/mL]	further results
3,161.48 ± 69.18 h·ng/ml	3,156.93 ± 68.74 h·ng/ml	0.80 ± 0.02	25.8 ± 0.6	1,750.59 ± 64.24 h·ng/ml	1,747.89 ± 64.52 h·ng/ml	0.73 ± 0.03	O=C(/C=C/c1ccc(O)c(O)c1)OC1[C@H](O)CC(O)(C(=O)O)C[C@H]1O (stereo partly drawn) [4-CQA]	-6.85	-16.89	14.39	-7.63	-6.42	9.60	-3.17	19.90	-0.64	-1.64	17.58	14.43	> 0.5	Vd [2, 17]: 0.76 ± 0.02 L; t 1/2 [2, 17]: 39.6 ± 0.6 min; MRT0-t [2, 18]: 21.6 ± 0 min; MRT0-∞ [2, 18]: 22.2 ± 0 min; Vd [2, 18]: 0.98 ± 0.11 L; t 1/2 [2, 18]: 55.8 ± 4.8 min
4,013.66 ± 42.67 h·ng/ml	4,006.71 ± 42.76 h·ng/ml	0.86 ± 0.01	21 ± 0	2,249.80 ± 109.69 h·ng/ml	2,244.68 ± 109.65 h·ng/ml	0.77 ± 0.04	O=C(/C=C/c1ccc(O)c(O)c1)O[C@@H]1C[C@@](O)(C(=O)O)C[C@@H](O)[C@@H]1O [5-CQA, 5-caffeoylquinic acid]	–	–	–	–	–	–	–	–	–	–	–	–	–	MRT0-t [2, 17]: 19.8 ± 0 min; MRT0-t [2, 18]: 26.4 ± 1.2 min; MRT0-∞ [2, 18]: 27.6 ± 1.2 min
–	–	–	–	–	–	–	O=C(O)c1ccc(O)c(O)c1 [PCA, protocatechuic acid]	-5.63	-2.62	-6.89	0.16	-6.60	-4.01	-0.14	-0.31	0.85	-10.60	-9.72	-3.16	> 0.5	AUC(0-t) ([2]; male, Sprague-Dawley, rat, plasma, iv, 1.76 ml/kg, Low group: single i.v. 1.76 ml/kg of 5 times concentrated ASEP, read-out: AUC0-t): 202 ± 4.82 ng·h/mL; AUC(0-inf) [2, 19]: 204 ± 5.08 ng·h/mL; clearance [2, 19]: 96 mL/min; MRT last [2, 19]: 15 ± 0.6 min; MRT inf [2, 19]: 16.8 ± 1.2 min; Vd ([2]; male, Sprague-Dawley, rat, plasma, iv, 1.76 ml/kg, Low group: single i.v. 1.76 ml/kg of 5 times concentrated ASEP, read-out: Vd): 2.91 ± 0.07 L; half-life [2, 19]: 21 ± 0.6 min; AUC(0-t) ([2]; male, Sprague-Dawley, rat, plasma, iv, 3.52 ml/kg, High group: single i.v. 3.52 ml/kg of 5 times concentrated ASEP, read-out: AUC0-t): 308 ± 14.2 ng·h/mL; AUC(0-inf) [2, 20]: 310 ± 14.1 ng·h/mL; clearance [2, 20]: 126 mL/min; MRT last [2, 20]: 18 ± 0.6 min; MRT inf [2, 20]: 19.2 ± 0.6 min; Vd ([2]; male, Sprague-Dawley, rat, plasma, iv, 3.52 ml/kg, High group: single i.v. 3.52 ml/kg of 5 times concentrated ASEP, read-out: Vd): 4.39 ± 0.22 L; half-life [2, 20]: 24 min; effect on VEGF-induced angiogenesis (zebrafish model): significant inhibitory effects; effect on VEGF-induced angiogenesis [3]: significant inhibitory effects
–	–	–	–	–	–	–	COc1cc2ccc(=O)oc2c(OC)c1O [isofraxidin]	–	–	–	–	–	–	–	–	–	–	–	–	–	elimination in cerebral ischemia-reperfusion rats compared with the normal group [4]: changed
